Here are results for one compound from article PMC2931804 (Clinical cancer research : an official journal of the …, 2010).

The conditions of data set [1]: vorinostat with FOLFOX; cited from earlier work.
Data set [2] in a line: FU plasma pharmacokinetics. The data set is classed as in vivo, human.

Structures are written as SMILES.

Regarding `O=c1[nH]cc(F)c(=O)[nH]1` [FU, 5-fluorouracil], the “FU clearance at higher vorinostat dose-levels” value in data set [1] is “lower FU clearance”. Besides, in data set [2] (1,700 mg vorinostat once daily, cycle 2 vs cycle 1, statistically significant), the “FU Cmax with vorinostat relative to without (times lower)” value is listed as 0.82 times. Also, in data set [2] (once-daily or twice-daily MTD), the “Change in FU clearance with the addition of vorinostat” value is given as “did not observe any decrease”.
